Laboratory results reported in ChEMBL document CHEMBL3046778, “Design, synthesis and pharmacological screening of hybrid molecules as antihypertensives” (Med Chem Res, 2011).

Assays:
Rattus norvegicus [1] = experiment: Toxicity in Rattus norvegicus Wistar (rat) assessed as Rmax at 40 mg/kg, ip measured after 45 min by ECG analysis (reference value: 0.08 +/- 0.008 mv); assay type: organism-based; parameters: dose 40 mg/kg, route intraperitoneal; details: in vivo, 0.75 h
Heart [2] = experiment: Inhibition of force of contraction in Hoplobatrachus tigerinus (frog) heart at log dose 2.3; assay type: functional
Rattus norvegicus [3] = experiment: Toxicity in Rattus norvegicus Wistar (rat) assessed as heart rate at 40 mg/kg, ip measured after 45 min by ECG analysis (reference value: 307.62 +/- 0.023 bpm); assay type: organism-based; parameters: dose 40 mg/kg, route intraperitoneal; details: in vivo, 0.75 h
Heart [4] = experiment: Inhibition of force of contraction in Hoplobatrachus tigerinus (frog) heart at log dose 2.9; assay type: functional
Rattus norvegicus [5] = experiment: Toxicity in Rattus norvegicus Wistar (rat) assessed as Rmax at 40 mg/kg, ip measured after 60 min by ECG analysis (reference value: 0.07 +/- 0.004 mv); assay type: organism-based; parameters: dose 40 mg/kg, route intraperitoneal; details: in vivo, 1 h
Rattus norvegicus [6] = experiment: Toxicity in Rattus norvegicus Wistar (rat) assessed as heart rate at 40 mg/kg, ip measured after 30 min by ECG analysis (reference value: 307.62 +/- 0.439 bpm); assay type: organism-based; parameters: dose 40 mg/kg, route intraperitoneal; details: in vivo, 0.5 h
Rattus norvegicus [7] = experiment: Toxicity in Rattus norvegicus Wistar (rat) assessed as Rmax at 40 mg/kg, ip measured after 30 min by ECG analysis (reference value: 0.08 +/- 0.008 mv); assay type: organism-based; parameters: dose 40 mg/kg, route intraperitoneal; details: in vivo, 0.5 h
Heart [8] = experiment: Inhibition of force of contraction in Hoplobatrachus tigerinus (frog) heart at log dose 3; assay type: functional
Rattus norvegicus [9] = experiment: Toxicity in Rattus norvegicus Wistar (rat) assessed as heart rate at 40 mg/kg, ip measured after 60 min by ECG analysis (reference value: 307.62 +/- 0.053 bpm); assay type: organism-based; parameters: dose 40 mg/kg, route intraperitoneal; details: in vivo, 1 h
Heart [10] = experiment: Inhibition of force of contraction in Hoplobatrachus tigerinus (frog) heart at log dose 2.6; assay type: functional
Heart [11] = experiment: Inhibition of force of contraction in Hoplobatrachus tigerinus (frog) heart at log dose 2; assay type: functional
Rattus norvegicus [12] = experiment: Toxicity in Rattus norvegicus Wistar (rat) assessed as Rmax at 50 mg/kg, ip measured after 60 min by ECG analysis (reference value: 0.07 +/- 0.004 mv); assay type: organism-based; parameters: dose 50 mg/kg, route intraperitoneal; details: in vivo, 1 h
Rattus norvegicus [13] = experiment: Toxicity in Rattus norvegicus Wistar (rat) assessed as Rmax at 50 mg/kg, ip measured after 30 min by ECG analysis (reference value: 0.08 +/- 0.008 mv); assay type: organism-based; parameters: dose 50 mg/kg, route intraperitoneal; details: in vivo, 0.5 h
Rattus norvegicus [14] = experiment: Toxicity in Rattus norvegicus Wistar (rat) assessed as heart rate at 50 mg/kg, ip measured after 60 min by ECG analysis (reference value: 307.62 +/- 0.053 bpm); assay type: organism-based; parameters: dose 50 mg/kg, route intraperitoneal; details: in vivo, 1 h
Rattus norvegicus [15] = experiment: Toxicity in Rattus norvegicus Wistar (rat) assessed as heart rate at 50 mg/kg, ip measured after 30 min by ECG analysis (reference value: 307.62 +/- 0.439 bpm); assay type: organism-based; parameters: dose 50 mg/kg, route intraperitoneal; details: in vivo, 0.5 h
Rattus norvegicus [16] = experiment: Toxicity in Rattus norvegicus Wistar (rat) assessed as Rmax at 50 mg/kg, ip measured after 45 min by ECG analysis (reference value: 0.08 +/- 0.008 mv); assay type: organism-based; parameters: dose 50 mg/kg, route intraperitoneal; details: in vivo, 0.75 h
Rattus norvegicus [17] = experiment: Toxicity in Rattus norvegicus Wistar (rat) assessed as heart rate at 50 mg/kg, ip measured after 45 min by ECG analysis (reference value: 307.62 +/- 0.023 bpm); assay type: organism-based; parameters: dose 50 mg/kg, route intraperitoneal; details: in vivo, 0.75 h
Rattus norvegicus [18] = experiment: Toxicity in Rattus norvegicus Wistar (rat) assessed as Rmax at 30 mg/kg, ip measured after 30 min by ECG analysis (reference value: 0.08 +/- 0.008 mv); assay type: organism-based; parameters: dose 30 mg/kg, route intraperitoneal; details: in vivo, 0.5 h
Rattus norvegicus [19] = experiment: Toxicity in Rattus norvegicus Wistar (rat) assessed as Rmax at 30 mg/kg, ip measured after 45 min by ECG analysis (reference value: 0.08 +/- 0.008 mv); assay type: organism-based; parameters: dose 30 mg/kg, route intraperitoneal; details: in vivo, 0.75 h
Rattus norvegicus [20] = experiment: Toxicity in Rattus norvegicus Wistar (rat) assessed as heart rate at 30 mg/kg, ip measured after 60 min by ECG analysis (reference value: 307.62 +/- 0.053 bpm); assay type: organism-based; parameters: dose 30 mg/kg, route intraperitoneal; details: in vivo, 1 h
Rattus norvegicus [21] = experiment: Toxicity in Rattus norvegicus Wistar (rat) assessed as heart rate at 30 mg/kg, ip measured after 45 min by ECG analysis (reference value: 307.62 +/- 0.023 bpm); assay type: organism-based; parameters: dose 30 mg/kg, route intraperitoneal; details: in vivo, 0.75 h
Rattus norvegicus [22] = experiment: Toxicity in Rattus norvegicus Wistar (rat) assessed as Rmax at 30 mg/kg, ip measured after 60 min by ECG analysis (reference value: 0.07 +/- 0.004 mv); assay type: organism-based; parameters: dose 30 mg/kg, route intraperitoneal; details: in vivo, 1 h
Rattus norvegicus [23] = experiment: Toxicity in Rattus norvegicus Wistar (rat) assessed as heart rate at 30 mg/kg, ip measured after 30 min by ECG analysis (reference value: 307.62 +/- 0.439 bpm); assay type: organism-based; parameters: dose 30 mg/kg, route intraperitoneal; details: in vivo, 0.5 h
Rattus norvegicus [24] = experiment: Toxicity in Rattus norvegicus Wistar (rat) assessed as Rmax at 10 mg/kg, ip measured after 45 min by ECG analysis (reference value: 0.08 +/- 0.008 mv); assay type: organism-based; parameters: dose 10 mg/kg, route intraperitoneal; details: in vivo, 0.75 h
Rattus norvegicus [25] = experiment: Toxicity in Rattus norvegicus Wistar (rat) assessed as Rmax at 10 mg/kg, ip measured after 30 min by ECG analysis (reference value: 0.08 +/- 0.008 mv); assay type: organism-based; parameters: dose 10 mg/kg, route intraperitoneal; details: in vivo, 0.5 h
Rattus norvegicus [26] = experiment: Toxicity in Rattus norvegicus Wistar (rat) assessed as heart rate at 10 mg/kg, ip measured after 30 min by ECG analysis (reference value: 307.62 +/- 0.035 bpm); assay type: organism-based; parameters: dose 10 mg/kg, route intraperitoneal; details: in vivo, 0.5 h
Rattus norvegicus [27] = experiment: Toxicity in Rattus norvegicus Wistar (rat) assessed as heart rate at 10 mg/kg, ip measured after 45 min by ECG analysis (reference value: 307.62 +/- 0.023 bpm); assay type: organism-based; parameters: dose 10 mg/kg, route intraperitoneal; details: in vivo, 0.75 h
Rattus norvegicus [28] = experiment: Toxicity in Rattus norvegicus Wistar (rat) assessed as Rmax at 10 mg/kg, ip measured after 60 min by ECG analysis (reference value: 0.07 +/- 0.004 mv); assay type: organism-based; parameters: dose 10 mg/kg, route intraperitoneal; details: in vivo, 1 h
Rattus norvegicus [29] = experiment: Toxicity in Rattus norvegicus Wistar (rat) assessed as heart rate at 10 mg/kg, ip measured after 60 min by ECG analysis (reference value: 307.62 +/- 0.053 bpm); assay type: organism-based; parameters: dose 10 mg/kg, route intraperitoneal; details: in vivo, 1 h

CCOC(=O)C1=C(C)N(CC(O)COc2ccc(/C=N/C(=S)Nc3ccccc3OC)cc2)C(=S)NC1c1ccccc1[N+](=O)[O-] (stereo not given)
Activity (Rattus norvegicus [1]): 0.05 mV | inhibition (INH) (Heart [2]): 38% | Activity (Rattus norvegicus [3]): 266.08 bpm | inhibition (INH) (Heart [4]): 20% | Activity (Rattus norvegicus [5]): 0.13 mV | Activity (Rattus norvegicus [6]): 266.08 bpm | Activity (Rattus norvegicus [7]): 0.1 mV | inhibition (INH) (Heart [8]): 31% | Activity (Rattus norvegicus [9]): 266.08 bpm | inhibition (INH) (Heart [10]): 20% | inhibition (INH) (Heart [11]): 25%

CCOC(=O)C1=C(C)N(CC(O)COc2ccc(/C=N/C(=S)Nc3ccccc3OC)cc2)C(=S)NC1c1cccc([N+](=O)[O-])c1 (stereo not given)
Activity (Rattus norvegicus [1]): 0.03 mV | inhibition (INH) (Heart [2]): 10% | Activity (Rattus norvegicus [3]): 214.17 bpm | inhibition (INH) (Heart [4]): 22% | Activity (Rattus norvegicus [5]): 0.19 mV | Activity (Rattus norvegicus [6]): 226.62 bpm | Activity (Rattus norvegicus [7]): 0.08 mV | inhibition (INH) (Heart [8]): 36% | Activity (Rattus norvegicus [9]): 215.7 bpm | inhibition (INH) (Heart [10]): 23% | inhibition (INH) (Heart [11]): 32%

CCOC(=O)C1=C(C)N(CC(O)COc2ccc(/C=N/C(=S)Nc3ccc(OC)cc3)cc2)C(=S)NC1c1ccccc1[N+](=O)[O-] (stereo not given)
Activity (Rattus norvegicus [1]): 0.02 mV | inhibition (INH) (Heart [2]): 50% | Activity (Rattus norvegicus [3]): 266.41 bpm | inhibition (INH) (Heart [4]): 66% | Activity (Rattus norvegicus [5]): 0.13 mV | Activity (Rattus norvegicus [6]): 272.19 bpm | Activity (Rattus norvegicus [7]): 0.09 mV | Activity (Rattus norvegicus [9]): 266.41 bpm | inhibition (INH) (Heart [10]): 50% | inhibition (INH) (Heart [11]): 30%

CCOC(=O)C1=C(C)N(CC(O)COc2ccc(/C=N/C(=S)Nc3ccc(OC)cc3)cc2)C(=S)NC1c1cccc([N+](=O)[O-])c1 (stereo not given)
Activity (Rattus norvegicus [1]): 0.07 mV | inhibition (INH) (Heart [2]): 43% | Activity (Rattus norvegicus [3]): 300.22 bpm | inhibition (INH) (Heart [4]): 50% | Activity (Rattus norvegicus [5]): 0.14 mV | Activity (Rattus norvegicus [6]): 315.87 bpm | Activity (Rattus norvegicus [7]): 0.04 mV | Activity (Rattus norvegicus [9]): 300.22 bpm | inhibition (INH) (Heart [10]): 43% | inhibition (INH) (Heart [11]): 50%

CCOC(=O)C1=C(C)N(CC(O)COc2ccc(/C=N/C(=S)Nc3ccc(C(=O)O)cc3)cc2)C(=S)NC1c1cccc([N+](=O)[O-])c1 (stereo not given)
Activity (Rattus norvegicus [12]): 0.12 mV | Activity (Rattus norvegicus [13]): 0.03 mV | inhibition (INH) (Heart [2]): 5% | Activity (Rattus norvegicus [14]): 399.26 bpm | inhibition (INH) (Heart [4]): 30% | Activity (Rattus norvegicus [15]): 399.26 bpm | Activity (Rattus norvegicus [16]): 0.05 mV | inhibition (INH) (Heart [10]): 25% | Activity (Rattus norvegicus [17]): 399.26 bpm | inhibition (INH) (Heart [11]): 23%

CCOC(=O)C1=C(C)N(CC(O)COc2ccc(/C=N/C(=S)Nc3ccc(Cl)cc3)cc2)C(=S)NC1c1ccccc1[N+](=O)[O-] (stereo not given)
Activity (Rattus norvegicus [1]): 0.02 mV | inhibition (INH) (Heart [2]): 16% | Activity (Rattus norvegicus [3]): 324.05 bpm | inhibition (INH) (Heart [4]): 18% | Activity (Rattus norvegicus [5]): 0.09 mV | Activity (Rattus norvegicus [6]): 324.05 bpm | Activity (Rattus norvegicus [7]): 0.08 mV | inhibition (INH) (Heart [8]): 50% | Activity (Rattus norvegicus [9]): 315.25 bpm | inhibition (INH) (Heart [10]): 18% | inhibition (INH) (Heart [11]): 23%

CCOC(=O)C1=C(C)N(CC(O)COc2ccc(/C=N/C(=S)Nc3ccc(Cl)cc3)cc2)C(=S)NC1c1cccc([N+](=O)[O-])c1 (stereo not given)
Activity (Rattus norvegicus [1]): 0.01 mV | inhibition (INH) (Heart [2]): 20% | Activity (Rattus norvegicus [3]): 299.78 bpm | inhibition (INH) (Heart [4]): 25% | Activity (Rattus norvegicus [5]): 0.07 mV | Activity (Rattus norvegicus [6]): 323.85 bpm | Activity (Rattus norvegicus [7]): 0.03 mV | Activity (Rattus norvegicus [9]): 260.42 bpm | inhibition (INH) (Heart [10]): 4% | inhibition (INH) (Heart [11]): 13%

COC(=O)C1=C(C)NC(C)=C(C(=O)OC)C1c1ccccc1[N+](=O)[O-] [NIFEDIPINE]
Activity (Rattus norvegicus [18]): 0.04 mV | Activity (Rattus norvegicus [19]): 0.1 mV | Activity (Rattus norvegicus [20]): 521.73 bpm | Activity (Rattus norvegicus [21]): 425.61 bpm | Activity (Rattus norvegicus [22]): 0.15 mV | Activity (Rattus norvegicus [23]): 363.63 bpm

CC(C)NCC(O)COc1cccc2ccccc12 (stereo not given) [PROPRANOLOL]
Activity (Rattus norvegicus [24]): 0.02 mV | Activity (Rattus norvegicus [25]): 0.04 mV | Activity (Rattus norvegicus [26]): 400 bpm | Activity (Rattus norvegicus [27]): 333 bpm | Activity (Rattus norvegicus [28]): 0.13 mV | Activity (Rattus norvegicus [29]): 333 bpm
